One may read the IC50 as the concentration at which inhibition is half-maximal. Read a low IC50 as greater potency.

What all share (experiment): fluorogenic peptidase assay, initial rate
What all share (type): biochemical

The target of assay [1] is cathepsin B (Homo sapiens, UniProt P07858).
In assay [2] the target is T1, cathepsin K (Homo sapiens, UniProt P43235).
T1 sequence (P43235 115-329): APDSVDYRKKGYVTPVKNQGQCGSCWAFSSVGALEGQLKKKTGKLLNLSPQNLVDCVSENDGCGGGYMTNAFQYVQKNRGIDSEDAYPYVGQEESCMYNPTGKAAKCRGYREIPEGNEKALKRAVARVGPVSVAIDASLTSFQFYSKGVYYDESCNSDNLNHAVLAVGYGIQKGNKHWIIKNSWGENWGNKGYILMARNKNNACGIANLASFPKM

For assay [3], the target named is cathepsin L (Homo sapiens, UniProt P07711).
Sequence of cathepsin L (P07711 114-288): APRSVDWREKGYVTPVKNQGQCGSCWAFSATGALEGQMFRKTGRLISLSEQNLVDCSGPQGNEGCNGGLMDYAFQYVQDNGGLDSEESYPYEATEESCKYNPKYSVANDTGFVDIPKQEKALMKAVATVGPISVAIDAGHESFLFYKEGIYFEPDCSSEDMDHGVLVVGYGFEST
Sequence of cathepsin L (P07711 292-333): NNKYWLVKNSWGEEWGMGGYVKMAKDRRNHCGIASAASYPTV

Regarding `O=C[C@H](C[C@@H]1CCNC1=O)NC(=O)[C@H](CC1CCCCC1)NC(=O)c1cc2ccccc2[nH]1` [11a], the IC50 in assay [1] turned out to be 4.9 ± 0.4 nM; in assay [2], 1.4 ± 0.2 nM; in assay [3] it was 0.14 ± 0.04 nM.

Turning to `O=C[C@H](C[C@@H]1CCNC1=O)NC(=O)[C@H](Cc1ccccc1)NC(=O)OCc1ccccc1` [MPI1], the values for the IC50 in assay [1], in assay [2] and in assay [3] were 25 ± 2 nM, 0.88 ± 0.12 nM and 0.079 ± 0.029 nM, respectively.

On to `O=C[C@H](C[C@@H]1CCNC1=O)NC(=O)[C@H](Cc1ccccc1)NC(=O)/C=C/c1ccc(Cl)cc1F` [MPI2], for which the IC50 in assay [1] is 4.1 ± 0.4 nM; in assay [2], 0.78 ± 0.06 nM; in assay [3], 0.19 ± 0.03 nM.

With `CC(C)C[C@H](NC(=O)[C@@H](NC(=O)OCc1ccccc1)C(C)C)C(=O)N[C@H](C=O)C[C@@H]1CCNC1=O` [MPI3], the IC50 in assay [1] turned out to be 112 ± 10 nM; in assay [2] it was 1.18 ± 0.18 nM; in assay [3], 0.3 ± 0.07 nM.

Regarding `CC(C)[C@H](NC(=O)OCc1ccccc1)C(=O)N[C@@H](Cc1ccccc1)C(=O)N[C@H](C=O)C[C@@H]1CCNC1=O` [MPI4], the IC50 in assay [1] was found to be 46 ± 3 nM; in assay [2], 49 ± 16 nM; in assay [3], 0.33 ± 0.04 nM.

Take `CC(C)[C@H](NC(=O)OCc1ccccc1)C(=O)N[C@@H](CC1CCCCC1)C(=O)N[C@H](C=O)C[C@@H]1CCNC1=O` [MPI5]: the results for the IC50 in assay [1], in assay [2] and in assay [3] were 80 ± 6 nM, 134 ± 18 nM and 2.3 ± 1.9 nM, respectively.

For `CC(C)C[C@H](NC(=O)[C@@H](NC(=O)OCc1ccccc1)[C@@H](C)OC(C)(C)C)C(=O)N[C@H](C=O)C[C@@H]1CCNC1=O` [MPI6], the IC50 is 380 ± 21 nM in assay [1], 1.07 ± 0.21 nM in assay [2] and 0.45 ± 0.08 nM in assay [3].

As to `C[C@@H](OC(C)(C)C)[C@H](NC(=O)OCc1ccccc1)C(=O)N[C@@H](Cc1ccccc1)C(=O)N[C@H](C=O)C[C@@H]1CCNC1=O` [MPI7], the values for the IC50 in assay [1], in assay [2] and in assay [3] were 64 ± 7 nM, 51 ± 6 nM and 0.61 ± 0.15 nM, respectively.

Regarding `C[C@@H](OC(C)(C)C)[C@H](NC(=O)OCc1ccccc1)C(=O)N[C@@H](CC1CCCCC1)C(=O)N[C@H](C=O)C[C@@H]1CCNC1=O` [MPI8], in assay [1], the IC50 came to 230 ± 20 nM.

For `CC(C)C[C@H](NC(=O)[C@@H](NC(=O)/C=C/c1ccc(Cl)cc1F)C(C)C)C(=O)N[C@H](C=O)C[C@@H]1CCNC1=O` [MPI9], the IC50 in assay [1] amounted to 147 ± 10 nM; in assay [2] it was 1.5 ± 0.2 nM; in assay [3] it was 0.56 ± 0.06 nM.

Values taken from publication doi:10.1101/2021.06.10.447950v1 (biorxiv, 2021).
